Reference: patent publication US11542298B2, “Hydroxysteroid compounds, their intermediates, process of preparation, composition and uses thereof” (Epirium Bio Inc., priority 2014, dated 2023)

Columns and labels:
[1] = system: HepG2 cells; assay: Fat oxidation (intracellular beta-hydroxybutyrate, triglycerides) in HepG2 cells; type: cell-based; conditions: HepG2, FIG. 5
Protocol: (§1) HepG2 cells were exposed to serum-free media for 3 hours and then exposed to gluconeogenic factors (lactate and pyruvate 10:1 ratio) and stimulators (cAMP) in the presence of increasing concentrations of OHP (in nM). Intracellular glucose production—a marker of de novo gluconeogenesis—was determined enzymatically (biovision glucose determination kit), as well as intracellular beta-hydroxybutyrate levels (a marker of fat oxidation) and triglycerides (substrate for fat oxidation). […] The results are depicted at FIG. 5.

[2] = system: HepG2 cells; assay: Intracellular glucose production (de novo gluconeogenesis) in HepG2 cells; type: cell-based; conditions: HepG2, FIG. 5
Protocol: as §1

[3] = system: AMPKinase; assay: AMPKinase activation in HepG2 cells (Western blot of phosphorylated AMPK and ACC); type: cell-based; conditions: HepG2, 1 hour, FIG. 2a
Text: OHP effects on AMPKinase activation in HepG2 cells. […] (RNeasy kit, QIAGEN). OHP effects on APPL1 nuclear translocation. […] The results are presented at FIGS. 2a and 2b.

[4] = system: AMP KINASE; assay: AMP KINASE activation, cell based ELISA in Hepatoma (Hep 2) liver cells; conditions: 0.1 nM, 30 m, over baseline of 100 (DMSO control)
Protocol: AMP KINASE activation potential of the compounds was evaluated using cell based ELISA·Hepatoma (Hep 2) liver cells were maintained in a T 75 culture flask-containing 25 mM DMEM+10% fetal calf serum. The cells were maintained in a T 75 culture flask-containing medium (DMEM+10% fetal calf serum). On reaching a confluence of 70 to 80%, the cells were seeded in a 96 well plate at a density of 40,000 cells per well in 25 mM DMEM+10% FCS medium. The plates were then incubated at 37° C. with 5% CO2 for 24 hours. Various concentrations of drugs were prepared in DMSO and diluted to required concentration with the medium and incubated at 37° C. with 5% CO2 for 30 min and 1 h for Epicatechin analogs and 11-BHP analogs respectively. Metformin was used as positive control·Cells were fixed with 4% formaldehyde for 30 minutes at room temperature and washed three times with PBS containing 0.1% Triton X-100. Endogenous peroxidase was quenched with 1% H2O2 in PBS-T (0.1% Tween 20) for 30 minutes and washed three times in PBS-T. Cells were blocked with 1% BSA in PBS-T for 1 hour. The cells were incubated with 1:1000 dilution primary antibody (Phospho-AMPKα ([…]) Rabbit mAb, Cell Signaling in PBS-T containing 5% BSA at 4° C. overnight. The cells were then washed three times with PBS-T for 5 minutes and incubated with 1:1000 dilution secondary antibody (Anti-rabbit IgG, HRP-linked Antibody, Cell Signaling) in PBS-T with 1% BSA for 1 hour at RT·Cells were washed three times with PBS-T for 5 minutes The cells were incubated with 100 μl TMB substrate solution for 30 minutes and the reaction was stopped with 100 μl of 2N H2SO4. Then the plate was read at 450 nm using ELISA plate reader and absorbance recorded. % activity was calculated using DMSO control as 100%.

[5] = system: HepG2 cells; assay: Mitochondrial DNA content in HepG2 cells; type: cell-based; conditions: HepG2, 24 hours, FIG. 3b
Text: The results are depicted at FIGS. 3a and 3b.

[6] = system: mitochondrial oxidative phosphorylation complex I; assay: Western blot of mitochondrial oxidative phosphorylation complex I protein levels in human coronary artery endothelial cells; type: cell-based; conditions: HCAEC, 48 h, FIG. 1a
Protocol: Cells were grown in Dulbecco's modified Eagle's media supplemented with fetal bovine serum (10%) to ˜90% confluence. Cells were treated with either vehicle (water) or incremental doses of the agent (dissolved in water) for a total of 48 h (treatment was repeated at the 24 h time point). At the end of the experiment, cells were lysed in Western blot sample buffer. A fixed amount of protein (25 micrograms) was loaded onto a polyacrylamide gel and run for 1 h to allow for the electrophoretic separation of proteins. The gel was then transferred onto a polyvinyl membrane for incubation with blocking buffer prior to exposure to the 1ry antibody (anti-human complex […]. Following a 1 h incubation at room temperature the membrane was washed and then exposed to the 2ry antibody for 1 h. after a second set of washes the membrane was incubated with an enhanced-chemiluminescence kit solution followed by exposure to X-ray film. The image obtain was used to quantitative changes in complex I protein levels as a function of compound dose. To normalize for loading differences the membrane was re-incubated (as above) with the subunit 6 ribosomal protein (S6RP) and exposed to X-ray film. Changes in values for complex I levels are normalized to differences in S6RP levels. All data are normalized to the values noted for cells treated with vehicle only (=100%). The results are presented at FIG. 1 a.

[7] = listed as 11β-hydroxypregnenolone

CC(=O)C1CC[C@H]2[C@@H]3CC=C4CC(O)CC[C@]4(C)[C@H]3[C@@H](O)C[C@]12C (stereo partly drawn) [Compound 1039, 1-((8S,9S,10R,11S,13S,14S)-3,11-dihydroxy-10,13-dimethyl-2,3,4,- 7,8,9,10,11,12,13,14,15,16,17-tetradecahydro-1H-cyclopenta[a]-phenanthren-17-yl)ethanone]
fat oxidation [1]: stimulates oxidation of fat | fat oxidation [1, 7]: stimulation of fat oxidation | hepatic gluconeogenesis (intracellular glucose production) [2]: reduces hepatic gluconeogenesis | hepatic gluconeogenesis (intracellular glucose production) [2, 7]: reduction of hepatic gluconeogenesis | activation of AMP kinase [3]: activates AMPkinase | activation of AMP kinase [3, 7]: activation of AMP KINASE | % pAMPK [4]: 109% | mitochondrial DNA content [5]: increases the DNA content of mitochondria | mitochondrial DNA content [5, 7]: increase of mitochondrial DNA content | mitochondrial biogenesis (complex I protein levels) [6]: causes mitochondrial biogenesis | mitochondrial biogenesis (complex I protein levels) [6, 7]: mitochondrial biogenesis
